Experimental data: patent publication US6737383B1, “Herbicidal oxadiazolidines” (priority 1999, dated 2004)

Experiments:
bedstraw = test: Test B pre/postemergence bedstraw; format: in vivo, Galium aparine; conditions: scale of 0 to 10 where 0 is no effect and 10 is complete control
In short: (§1)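 Response is a visual 0-to-10 score relative to untreated plants, where 0 means no effect and 10 means complete control, taken twelve to sixteen days after application. Treatments went onto soil at planting and onto foliage of 1- to 4-leaf plants, using a surfactant-containing non-phytotoxic solvent.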

blackgrass = test: Test B pre/postemergence blackgrass; format: in vivo, Alopecurus myosuroides
In short: as §1

surinam grass = test: Test B pre/postemergence surinam grass; format: in vivo, Brachiaria decumbens
In short: as §1

cocklebur = test: Test B pre/postemergence cocklebur; format: in vivo, Xanthium strumarium
In short: as §1

corn = test: Test B pre/postemergence corn; format: in vivo, Zea mays
In short: as §1

crabgrass = test: Test B pre/postemergence crabgrass; format: in vivo, Digitaria sanguinalis
In short: as §1

giant foxtail = test: Test B pre/postemergence giant foxtail; format: in vivo, Setaria faberii
In short: as §1

morningglory = test: Test B pre/postemergence morningglory; format: in vivo, Ipomoea hederacea
In short: as §1

pigweed = test: Test B pre/postemergence pigweed; format: in vivo, Amaranthus retroflexus
In short: as §1

rape = test: Test B pre/postemergence rape; format: in vivo, Brassica napus
In short: as §1

soybean = test: Test B pre/postemergence soybean; format: in vivo, Glycine max
In short: as §1

sugar beet = test: Test B pre/postemergence sugar beet; format: in vivo, Beta vulgaris
In short: as §1

velvetleaf = test: Test B pre/postemergence velvetleaf; format: in vivo, Abutilon theophrasti
In short: as §1

wheat = test: Test B pre/postemergence wheat; format: in vivo, Triticum aestivum
In short: as §1

wild oat = test: Test B pre/postemergence wild oat; format: in vivo, Avena fatua
In short: as §1

purple nutsedge = test: Test B pre/postemergence purple nutsedge; format: in vivo, Cyperus rotundus
In short: as §1

rice = test: Test B flood test rice; format: in vivo, Oryza sativa
In short: (§2)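 Each value is a visual injury score relative to controls, with 10 meaning complete control and 0 no effect. Evaluation took place twelve to sixteen days after the 2-leaf-stage plants were treated and kept in the greenhouse.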

smallflower flatsedge = test: Test B flood test smallflower flatsedge; format: in vivo, Cyperus difformis
In short: as §2

duck salad = test: Test B flood test duck salad; format: in vivo, Heteranthera limosa
In short: as §2

bamyardgrass = test: Test B flood test barnyardgrass; format: in vivo, Echinochloa crus-galli
In short: as §2

[1] = Preemergence, Rate 250 g/ha, scale of 0 to 10 where 0 is no effect and 10 is complete control
[2] = Preemergence, Rate 500 g/ha, scale of 0 to 10 where 0 is no effect and 10 is complete control
[3] = Rate 62 g/ha, Postemergence, scale 0 to 10, 0 no effect, 10 complete control
[4] = Rate 125 g/ha, Postemergence, scale of 0 to 10 where 0 is no effect and 10 is complete control
[5] = Rate 250 g/ha, Postemergence, scale of 0 to 10 where 0 is no effect and 10 is complete control
[6] = Rate 500 g/ha, Postemergence, scale 0 to 10, 0 no effect, 10 complete control
[7] = Rate 62 g/ha, headed Pre-emergence (flood test species), scale 0 to 10 (0 no effect, 10 complete control)
[8] = Rate 125 g/ha, Pre-emergence, flood test species, scale 0 to 10 where 0 is no effect and 10 is complete control
[9] = Rate 250 g/ha, Pre-emergence, flood-test species, scale 0 to 10, 0 is no effect, 10 is complete control
[10] = Rate 500 g/ha, Pre-emergence, flood test species, scale 0 to 10 (0 no effect, 10 complete control)

## CCc1cccc(CC)c1-n1c(=O)on(C(=O)N(c2ccccc2)C(C)C)c1=O [Compound 305]
bedstraw; Preemergence, Rate 250 g/ha
  Bedstraw plant response rating: 0
bedstraw; Preemergence, Rate 500 g/ha
  Bedstraw plant response rating: 0
bedstraw; Rate 125 g/ha, Postemergence
  Bedstraw plant response rating: 0
blackgrass; Preemergence, Rate 125 g/ha
  Blackgrass plant response rating (0 to 10 scale): 0
blackgrass; [1]
  Blackgrass plant response rating: 0
blackgrass; [2]
  Blackgrass plant response rating: 4
blackgrass; [3]
  Blackgrass plant response rating: 0
blackgrass; [4]
  Blackgrass plant response rating: 0
blackgrass; [5]
  Plant response rating, Blackgrass: 0
blackgrass; [6]
  Blackgrass plant response rating: 0
Surinam grass; Preemergence, Rate 125 g/ha
  B. signalgrass plant response rating (0 to 10 scale, 0 is no effect, 10 is complete control): 0
Surinam grass; [1]
  B. signalgrass plant response rating: 0
Surinam grass; [2]
  B. signalgrass plant response rating: 5
Surinam grass; [3]
  B. signalgrass plant response rating: 0
Surinam grass; [4]
  B. signalgrass plant response rating: 0
Surinam grass; [5]
  Plant response rating, B. signalgrass: 0
Surinam grass; [6]
  B. signalgrass plant response rating: 0
cocklebur; Preemergence, Rate 125 g/ha
  Cocklebur plant response rating (0 to 10 scale): 0
cocklebur; [1]
  Cocklebur plant response rating: 0
cocklebur; [2]
  Cocklebur plant response rating: 0
cocklebur; [3]
  Cocklebur plant response rating: 0
cocklebur; [4]
  Cocklebur plant response rating: 0
cocklebur; [5]
  Plant response rating, Cocklebur: 0
cocklebur; [6]
  Cocklebur plant response rating: 0
corn; Preemergence, Rate 125 g/ha
  Corn plant response rating (0 to 10 scale): 0
corn; [1]
  Corn plant response rating: 0
corn; [2]
  Corn plant response rating: 0
corn; [3]
  Corn plant response rating: 0
corn; [4]
  Corn plant response rating: 0
corn; [5]
  Plant response rating, Corn: 0
corn; [6]
  Corn plant response rating: 0
crabgrass; Preemergence, Rate 125 g/ha
  Crabgrass plant response rating (0 to 10 scale): 4
crabgrass; [1]
  Crabgrass plant response rating: 6
crabgrass; [2]
  Crabgrass plant response rating: 7
crabgrass; [3]
  Crabgrass plant response rating: 0
crabgrass; [4]
  Crabgrass plant response rating: 0
crabgrass; [5]
  Plant response rating, Crabgrass: 0
Giant foxtail; Preemergence, Rate 125 g/ha
  Giant foxtail plant response rating (0 to 10 scale): 8
Giant foxtail; [1]
  Giant foxtail plant response rating: 9
Giant foxtail; [2]
  Giant foxtail plant response rating: 10
Giant foxtail; [3]
  Giant foxtail plant response rating: 0
Giant foxtail; [4]
  Giant foxtail plant response rating: 0
Giant foxtail; [5]
  Plant response rating, Giant foxtail: 0
morningglory; Preemergence, Rate 125 g/ha
  Morningglory plant response rating (0 to 10 scale): 0
morningglory; [1]
  Morningglory plant response rating: 0
morningglory; [2]
  Morningglory plant response rating: 0
morningglory; [3]
  Morningglory plant response rating: 0
morningglory; [4]
  Morningglory plant response rating: 0
morningglory; [5]
  Plant response rating, Morningglory: 0
pigweed; Preemergence, Rate 125 g/ha
  Redroot pigweed plant response rating (0 to 10 scale): 0
pigweed; [1]
  Redroot pigweed plant response rating: 3
pigweed; [2]
  Redroot pigweed plant response rating: 7
pigweed; [3]
  Redroot pigweed plant response rating: 3
pigweed; [4]
  Redroot pigweed plant response rating: 3
pigweed; [5]
  Plant response rating, Redroot pigweed: 4
rape; Preemergence, Rate 125 g/ha
  Rape plant response rating (0 to 10 scale): 0
rape; [1]
  Rape plant response rating: 0
rape; [2]
  Rape plant response rating: 0
rape; [3]
  Rape plant response rating: 0
rape; [4]
  Rape plant response rating: 0
rape; [5]
  Plant response rating, Rape: 0
soybean; Preemergence, Rate 125 g/ha
  Soybean plant response rating (0 to 10 scale): 0
soybean; [1]
  Soybean plant response rating: 0
soybean; [2]
  Soybean plant response rating: 0
soybean; [3]
  Soybean plant response rating: 4
soybean; [4]
  Soybean plant response rating: 4
soybean; [5]
  Plant response rating, Soybean: 4
Sugar beet; Preemergence, Rate 125 g/ha
  Sugarbeets plant response rating (0 to 10 scale): 0
Sugar beet; [1]
  Sugarbeets plant response rating: 0
Sugar beet; [2]
  Sugarbeets plant response rating: 3
Sugar beet; [3]
  Sugarbeets plant response rating: 0
Sugar beet; [4]
  Sugarbeets plant response rating: 0
Sugar beet; [5]
  Plant response rating, Sugarbeets: 0
velvetleaf; Preemergence, Rate 125 g/ha
  Velvetleaf plant response rating (0 to 10 scale): 0
velvetleaf; [1]
  Velvetleaf plant response rating: 0
velvetleaf; [2]
  Velvetleaf plant response rating: 0
velvetleaf; [3]
  Velvetleaf plant response rating: 0
velvetleaf; [4]
  Velvetleaf plant response rating: 0
velvetleaf; [5]
  Plant response rating, Velvetleaf: 0
wheat; Preemergence, Rate 125 g/ha
  Wheat plant response rating (0 to 10 scale): 0
wheat; [1]
  Wheat plant response rating: 0
wheat; [2]
  Wheat plant response rating: 0
wheat; [3]
  Wheat plant response rating: 0
wheat; [4]
  Wheat plant response rating: 0
wheat; [5]
  Plant response rating, Wheat: 0
Wild oat; Preemergence, Rate 125 g/ha
  Wild oats plant response rating (0 to 10 scale): 0
Wild oat; [1]
  Wild oats plant response rating: 0
Wild oat; [2]
  Wild oats plant response rating: 1
Wild oat; [3]
  Wild oats plant response rating: 0
Wild oat; [4]
  Wild oats plant response rating: 0
Wild oat; [5]
  Plant response rating, Wild oats: 0
Purple nutsedge; Preemergence, Rate 125 g/ha
  Nutsedge plant response rating (0 to 10 scale): 0
Purple nutsedge; [1]
  Nutsedge plant response rating: 0
Purple nutsedge; [3]
  Nutsedge plant response rating: 0
Purple nutsedge; [4]
  Nutsedge plant response rating: 0
Purple nutsedge; [5]
  Plant response rating, Nutsedge: 0
rice; [7]
  Rice plant response rating: 0
rice; [8]
  Rice plant response rating: 0
rice; [9]
  Rice plant response rating: 0
rice; [10]
  Rice plant response rating: 0
Smallflower flatsedge; [7]
  S. Flatsedge plant response rating: 0
Smallflower flatsedge; [8]
  S. Flatsedge plant response rating: 0
Smallflower flatsedge; [9]
  S. Flatsedge plant response rating: 0
Smallflower flatsedge; [10]
  S. Flatsedge plant response rating: 0
Duck salad; [7]
  Ducksalad plant response rating: 0
Duck salad; [8]
  Ducksalad plant response rating: 0
Duck salad; [9]
  Ducksalad plant response rating: 0
Duck salad; [10]
  Ducksalad plant response rating: 0
bamyardgrass; [7]
  Barnyardgrass plant response rating: 0
bamyardgrass; [8]
  Barnyardgrass plant response rating: 0
bamyardgrass; [9]
  Barnyardgrass plant response rating: 0
bamyardgrass; [10]
  Barnyardgrass plant response rating: 0
